Data reported in ChEMBL document CHEMBL3991601, “The target landscape of clinical kinase drugs” (Science, 2017).
Calls of active or inactive are those of the source.

Experiments:
[1] = molecular target: T1, Cysteine--tRNA ligase, cytoplasmic (Homo sapiens, UniProt P49589)
T1 sequence (P49589 whole entry): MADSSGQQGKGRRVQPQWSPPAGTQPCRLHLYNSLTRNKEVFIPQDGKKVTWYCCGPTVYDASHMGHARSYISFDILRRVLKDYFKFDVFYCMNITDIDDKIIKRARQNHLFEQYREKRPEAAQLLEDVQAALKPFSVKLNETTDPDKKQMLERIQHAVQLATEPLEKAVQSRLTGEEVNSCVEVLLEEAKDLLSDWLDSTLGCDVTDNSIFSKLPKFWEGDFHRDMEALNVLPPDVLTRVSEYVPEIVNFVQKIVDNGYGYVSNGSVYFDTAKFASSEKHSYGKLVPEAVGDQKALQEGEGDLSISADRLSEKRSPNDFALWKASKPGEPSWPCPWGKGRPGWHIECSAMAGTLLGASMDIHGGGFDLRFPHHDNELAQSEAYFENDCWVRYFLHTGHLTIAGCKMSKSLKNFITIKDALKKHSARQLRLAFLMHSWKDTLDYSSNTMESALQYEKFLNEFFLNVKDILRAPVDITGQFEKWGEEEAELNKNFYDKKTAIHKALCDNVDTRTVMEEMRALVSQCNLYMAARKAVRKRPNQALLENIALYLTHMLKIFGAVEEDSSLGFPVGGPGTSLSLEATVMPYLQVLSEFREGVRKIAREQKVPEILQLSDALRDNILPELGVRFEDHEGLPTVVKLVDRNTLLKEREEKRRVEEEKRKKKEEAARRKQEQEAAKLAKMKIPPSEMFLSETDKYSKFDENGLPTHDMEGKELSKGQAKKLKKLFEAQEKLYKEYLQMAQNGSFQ

[2] = molecular target: Dual specificity protein kinase CLK1 (Homo sapiens, UniProt P49759)
[3] = molecular target: T2, MAP kinase-activated protein kinase 5 (Homo sapiens, UniProt Q8IW41)
T2 sequence (Q8IW41 whole entry): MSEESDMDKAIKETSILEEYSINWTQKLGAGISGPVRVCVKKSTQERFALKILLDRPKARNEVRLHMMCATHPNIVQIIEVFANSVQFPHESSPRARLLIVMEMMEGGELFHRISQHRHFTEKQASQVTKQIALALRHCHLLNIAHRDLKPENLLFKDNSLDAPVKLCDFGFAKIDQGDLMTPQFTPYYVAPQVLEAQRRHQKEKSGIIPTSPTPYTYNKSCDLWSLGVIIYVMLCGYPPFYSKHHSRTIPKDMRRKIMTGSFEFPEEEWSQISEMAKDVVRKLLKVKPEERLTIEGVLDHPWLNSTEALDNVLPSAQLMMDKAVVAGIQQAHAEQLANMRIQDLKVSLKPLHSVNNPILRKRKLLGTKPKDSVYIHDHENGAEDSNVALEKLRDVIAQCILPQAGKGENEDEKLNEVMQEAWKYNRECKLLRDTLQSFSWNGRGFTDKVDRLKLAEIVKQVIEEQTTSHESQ

[4] = molecular target: cAMP-dependent protein kinase catalytic subunit gamma (Homo sapiens, UniProt P22612)
[5] = molecular target: T3, Ras-related protein Rab-27A (Homo sapiens, UniProt P51159)
T3 sequence (P51159 whole entry): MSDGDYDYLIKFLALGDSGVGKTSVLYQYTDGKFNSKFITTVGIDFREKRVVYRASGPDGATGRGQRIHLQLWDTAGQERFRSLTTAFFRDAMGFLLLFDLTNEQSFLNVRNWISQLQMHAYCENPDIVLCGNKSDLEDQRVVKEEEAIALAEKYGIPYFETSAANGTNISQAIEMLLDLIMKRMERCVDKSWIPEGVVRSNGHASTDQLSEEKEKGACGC

[6] = molecular target: Structural maintenance of chromosomes protein 2 (Homo sapiens, UniProt O95347)
[7] = molecular target: T4, Tyrosine-protein kinase Tec (Homo sapiens, UniProt P42680)
T4 sequence (P42680 whole entry): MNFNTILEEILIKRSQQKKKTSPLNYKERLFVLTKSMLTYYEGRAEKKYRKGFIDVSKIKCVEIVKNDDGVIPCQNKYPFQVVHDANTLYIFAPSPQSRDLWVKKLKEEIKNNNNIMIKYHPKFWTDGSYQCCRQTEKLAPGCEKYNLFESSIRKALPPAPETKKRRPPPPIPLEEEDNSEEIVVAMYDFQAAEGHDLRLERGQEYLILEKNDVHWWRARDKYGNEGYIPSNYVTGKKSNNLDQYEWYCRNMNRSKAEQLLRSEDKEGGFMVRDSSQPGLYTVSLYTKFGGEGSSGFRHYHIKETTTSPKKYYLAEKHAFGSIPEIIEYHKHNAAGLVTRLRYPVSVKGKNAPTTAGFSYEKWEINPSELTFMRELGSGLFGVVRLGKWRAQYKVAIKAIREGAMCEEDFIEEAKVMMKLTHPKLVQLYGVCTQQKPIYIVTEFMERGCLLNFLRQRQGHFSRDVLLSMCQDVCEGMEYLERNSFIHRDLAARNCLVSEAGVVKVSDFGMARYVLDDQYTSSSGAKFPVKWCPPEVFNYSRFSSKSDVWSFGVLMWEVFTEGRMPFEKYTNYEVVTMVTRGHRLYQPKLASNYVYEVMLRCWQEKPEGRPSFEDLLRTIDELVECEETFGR
Also: in the data inactive means no Kd found up to 30 µM.

Sequence of Structural maintenance of chromosomes protein 2 (O95347 whole entry): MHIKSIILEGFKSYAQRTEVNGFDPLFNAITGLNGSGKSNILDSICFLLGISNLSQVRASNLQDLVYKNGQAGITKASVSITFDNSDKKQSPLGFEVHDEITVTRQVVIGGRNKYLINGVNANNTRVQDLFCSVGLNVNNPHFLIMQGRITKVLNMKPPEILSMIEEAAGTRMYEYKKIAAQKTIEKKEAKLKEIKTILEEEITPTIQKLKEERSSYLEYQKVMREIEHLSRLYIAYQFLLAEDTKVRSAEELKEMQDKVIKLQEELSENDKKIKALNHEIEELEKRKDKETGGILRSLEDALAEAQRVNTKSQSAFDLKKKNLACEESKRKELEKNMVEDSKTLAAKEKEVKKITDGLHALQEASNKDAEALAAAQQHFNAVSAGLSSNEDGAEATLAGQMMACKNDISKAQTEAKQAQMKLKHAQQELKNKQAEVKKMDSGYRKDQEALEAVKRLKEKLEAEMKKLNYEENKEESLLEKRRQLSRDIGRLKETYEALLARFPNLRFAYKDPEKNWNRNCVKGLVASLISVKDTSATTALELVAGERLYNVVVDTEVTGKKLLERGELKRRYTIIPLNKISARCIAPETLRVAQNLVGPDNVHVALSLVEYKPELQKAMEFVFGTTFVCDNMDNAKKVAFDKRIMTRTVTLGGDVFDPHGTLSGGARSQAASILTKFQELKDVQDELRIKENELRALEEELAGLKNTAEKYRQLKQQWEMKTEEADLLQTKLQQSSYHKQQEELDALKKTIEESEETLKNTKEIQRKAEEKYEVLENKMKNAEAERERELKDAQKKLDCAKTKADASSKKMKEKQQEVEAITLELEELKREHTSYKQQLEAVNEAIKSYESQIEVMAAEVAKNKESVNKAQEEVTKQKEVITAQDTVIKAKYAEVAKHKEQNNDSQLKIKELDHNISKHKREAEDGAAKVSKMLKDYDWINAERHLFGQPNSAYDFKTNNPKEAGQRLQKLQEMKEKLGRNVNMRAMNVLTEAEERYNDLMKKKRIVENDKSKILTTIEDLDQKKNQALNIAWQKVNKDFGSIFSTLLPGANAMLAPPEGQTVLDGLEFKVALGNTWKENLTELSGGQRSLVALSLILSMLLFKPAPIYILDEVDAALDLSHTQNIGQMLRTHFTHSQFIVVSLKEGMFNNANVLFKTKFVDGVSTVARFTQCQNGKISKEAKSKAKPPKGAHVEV
Sequence of Dual specificity protein kinase CLK1 (P49759 whole entry): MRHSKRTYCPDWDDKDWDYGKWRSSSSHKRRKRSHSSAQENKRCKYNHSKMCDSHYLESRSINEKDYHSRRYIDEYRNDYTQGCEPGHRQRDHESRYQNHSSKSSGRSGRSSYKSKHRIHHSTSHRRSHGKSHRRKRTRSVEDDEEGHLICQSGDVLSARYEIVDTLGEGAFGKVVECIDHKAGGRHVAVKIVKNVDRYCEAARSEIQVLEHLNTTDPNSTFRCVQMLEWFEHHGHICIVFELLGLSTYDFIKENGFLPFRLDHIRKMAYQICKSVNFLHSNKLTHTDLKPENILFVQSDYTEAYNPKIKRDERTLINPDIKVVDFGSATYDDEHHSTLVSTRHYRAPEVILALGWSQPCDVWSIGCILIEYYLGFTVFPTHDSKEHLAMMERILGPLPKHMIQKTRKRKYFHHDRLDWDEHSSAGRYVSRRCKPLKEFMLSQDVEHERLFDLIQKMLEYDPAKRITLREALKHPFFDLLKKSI
Sequence of cAMP-dependent protein kinase catalytic subunit gamma (P22612 whole entry): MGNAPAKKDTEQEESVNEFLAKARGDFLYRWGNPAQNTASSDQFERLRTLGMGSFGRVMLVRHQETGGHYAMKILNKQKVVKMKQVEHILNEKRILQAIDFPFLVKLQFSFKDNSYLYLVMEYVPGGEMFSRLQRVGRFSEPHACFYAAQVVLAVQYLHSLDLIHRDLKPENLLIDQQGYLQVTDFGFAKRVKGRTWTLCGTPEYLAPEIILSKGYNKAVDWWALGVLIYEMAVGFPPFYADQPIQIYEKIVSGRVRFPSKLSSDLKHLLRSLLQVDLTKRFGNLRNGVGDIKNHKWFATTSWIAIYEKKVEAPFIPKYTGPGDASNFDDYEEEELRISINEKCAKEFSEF

Kd [1]	Kd [2]	Kd [3]	Kd [4]	Kd [5]	Kd [6]	Kd [7]	SMILES
> 30 µM (inactive)	> 30 µM (inactive)	> 30 µM (inactive)	> 30 µM (inactive)	> 30 µM (inactive)	> 30 µM (inactive)	> 30 µM (inactive)	Cn1cnc2c(F)c(Nc3ccc(Br)cc3F)c(C(=O)NOCCO)cc21 [BINIMETINIB]
> 30 µM (inactive)	1.06 µM	> 30 µM (inactive)	> 30 µM (inactive)	> 30 µM (inactive)	> 30 µM (inactive)	> 30 µM (inactive)	Cc1cc(Nc2ncc(Cl)c(Nc3ccccc3S(=O)(=O)C(C)C)n2)c(OC(C)C)cc1C1CCNCC1 [CERITINIB]
> 30 µM (inactive)	> 30 µM (inactive)	> 30 µM (inactive)	> 30 µM (inactive)	4.49 µM	> 30 µM (inactive)	> 30 µM (inactive)	COc1c(OCCCN2CCOCC2)ccc2c1N=C(NC(=O)c1cnc(N)nc1)N1CCN=C21 [COPANLISIB]
> 30 µM (inactive)	> 30 µM (inactive)	> 30 µM (inactive)	> 30 µM (inactive)	> 30 µM (inactive)	> 30 µM (inactive)	> 30 µM (inactive)	COCC(=O)NC/C=C/c1ccc2ncnc(Nc3ccc(Oc4ccc(C)nc4)c(C)c3)c2c1 [CP-724714]
> 30 µM (inactive)	> 30 µM (inactive)	> 30 µM (inactive)	> 30 µM (inactive)	> 30 µM (inactive)	> 30 µM (inactive)	> 30 µM (inactive)	C#Cc1cccc(Nc2ncnc3cc(OC)c(OCCCCCCC(=O)NO)cc23)c1 [CUDC-101]
> 30 µM (inactive)	> 30 µM (inactive)	> 30 µM (inactive)	> 30 µM (inactive)	> 30 µM (inactive)	> 30 µM (inactive)	> 30 µM (inactive)	Cc1cccc(-c2nn3c(c2-c2ccnc4ccc(C(N)=O)cc24)CCC3)n1 [GALUNISERTIB]
> 30 µM (inactive)	> 30 µM (inactive)	> 30 µM (inactive)	> 30 µM (inactive)	> 30 µM (inactive)	> 30 µM (inactive)	> 30 µM (inactive)	CNC(=O)c1cccc2cc(Oc3ccnc4cc(OCC5(N)CC5)c(OC)cc34)ccc12 [LUCITANIB]
> 30 µM (inactive)	0.008 µM (active)	> 30 µM (inactive)	> 30 µM (inactive)	> 30 µM (inactive)	> 30 µM (inactive)	> 30 µM (inactive)	CNC(=O)c1nn(C)c2c1C(C)(C)Cc1cnc(Nc3ccc(N4CCN(C)CC4)cc3)nc1-2 [MILCICLIB]
> 30 µM (inactive)	> 30 µM (inactive)	> 30 µM (inactive)	> 30 µM (inactive)	> 30 µM (inactive)	> 30 µM (inactive)	> 30 µM (inactive)	NC1(c2ccc(-c3nc4ccn5c(=O)[nH]nc5c4cc3-c3ccccc3)cc2)CCC1 [MK-2206]
> 30 µM (inactive)	> 30 µM (inactive)	> 30 µM (inactive)	> 30 µM (inactive)	> 30 µM (inactive)	> 30 µM (inactive)	> 30 µM (inactive)	Cn1cc(-c2cnc3ccc4ccc(CS(=O)(=O)NCc5ccccn5)cc4c(=O)c3c2)cn1 [MK-8033]
> 30 µM (inactive)	> 30 µM (inactive)	> 30 µM (inactive)	> 30 µM (inactive)	> 30 µM (inactive)	> 30 µM (inactive)	> 30 µM (inactive)	FC(F)(F)c1ccc(/C=C/c2nc(COc3ccc(CCCCn4ccnn4)cc3)co2)cc1 [MUBRITINIB]
> 30 µM (inactive)	0.09 µM (active)	> 30 µM (inactive)	0.066 µM (active)	> 30 µM (inactive)	> 30 µM (inactive)	1.23 µM (active)	Cc1nc(Nc2n[nH]c3c2CN(C(=O)N[C@H](CN(C)C)c2ccccc2)C3(C)C)c2sccc2n1 [PF-03758309]
> 30 µM (inactive)	> 30 µM (inactive)	> 30 µM (inactive)	> 30 µM (inactive)	> 30 µM (inactive)	> 30 µM (inactive)	> 30 µM (inactive)	Cc1cnc(NC(=O)Nc2cc(Br)c(C)cc2OC[C@@H]2CNCCO2)cn1 [RABUSERTIB]
> 30 µM (inactive)	> 30 µM (inactive)	> 30 µM (inactive)	> 30 µM (inactive)	> 30 µM (inactive)	> 30 µM (inactive)	> 30 µM (inactive)	N#CC1(c2ccc(NC(=O)c3cccnc3NCc3ccncc3)cc2)CCCC1 [RIVOCERANIB]
> 30 µM (inactive)	> 30 µM (inactive)	> 30 µM (inactive)	> 30 µM (inactive)	> 30 µM (inactive)	> 30 µM (inactive)	> 30 µM (inactive)	O=c1[nH]ccc2cc(OC3CCNCC3)ccc12 [SAR-407899 FREE BASE]
> 30 µM (inactive)	> 30 µM (inactive)	> 30 µM (inactive)	> 30 µM (inactive)	> 30 µM (inactive)	> 30 µM (inactive)	> 30 µM (inactive)	CO[C@H]1C[C@@H]2CC[C@@H](C)[C@@](O)(O2)C(=O)C(=O)N2CCCC[C@H]2C(=O)O[C@H]([C@H](C)C[C@@H]2CC[C@@H](OC(=O)C(C)(CO)CO)[C@H](OC)C2)CC(=O)[C@H](C)/C=C(\C)[C@@H](O)[C@@H](OC)C(=O)[C@H](C)C[C@H](C)/C=C/C=C/C=C/1C [TEMSIROLIMUS]
> 30 µM (inactive)	> 30 µM (inactive)	> 30 µM (inactive)	> 30 µM (inactive)	> 30 µM (inactive)	> 30 µM (inactive)	> 30 µM (inactive)	COc1cc2c(Nc3ccc(Cl)c(Cl)c3F)ncnc2cc1OC[C@@H]1C[C@@H]2CN(C)C[C@@H]2C1 [TESEVATINIB]
> 30 µM (inactive)	0.942 µM (active)	> 30 µM (inactive)	> 30 µM (inactive)	> 30 µM (inactive)	> 30 µM (inactive)	> 30 µM (inactive)	C[C@@H](NC(=O)c1ncnc(N)c1Cl)c1ncc(C(=O)Nc2cc(C(F)(F)F)c(Cl)cn2)s1 [TOVORAFENIB]

SMILES	Kd [1]	Kd [2]	Kd [3]	Kd [4]	Kd [5]	Kd [6]	Kd [7]
O=C(Nc1cc(C(F)(F)F)cc(C(F)(F)F)c1)c1cc(Cl)ccc1O [IMD-0354]	> 30 µM (inactive)	> 30 µM (inactive)	> 30 µM (inactive)	> 30 µM (inactive)	> 30 µM (inactive)	> 30 µM (inactive)	> 30 µM (inactive)
CCCCCCCCCCCCCCCCCCOP(=O)([O-])OC1CC[N+](C)(C)CC1 [PERIFOSINE]	> 30 µM (inactive)	> 30 µM (inactive)	> 30 µM (inactive)	> 30 µM (inactive)	> 30 µM (inactive)	> 30 µM (inactive)	> 30 µM (inactive)
